Measured values: US7041702B1, “Pharmaceutically active compounds and methods of use” (Scion Pharmaceuticals, Inc., priority 1997, dated 2006)

Key:
DBA/2 mice = assay: In vivo anticonvulsant activity in the DBA/2 mouse model (mouse audiogenic assay); conditions: vs vehicle controls, HCl salt form
Description: As discussed above, preferred compounds of the invention in a standard anticonvulsant in vivo audiogenic test, such as the audiogenic mouse assay of Example 11 which follows, where DBA/2 mice about 20–23 days old are injected intraperitoneally with a test compound 30 minutes prior to being placed in a bell jar with exposure to auditory stimulus of 12 KHz sine wave at 110–120 db. References herein in vivo “audiogenic assay” are intended to refer to that protocol. […] As discussed above, activity in the audiogenic assay has been recognized as indicative that a test compound has neuroprotective properties. See, e.g., M. Tricklebank et al., European Journal of Pharmacology, supra; T. Seyfried, Federation Proceedings, supra.
Compounds were tested for their effectiveness in preventing seizures in DBA/2 mice which have a unique sensitivity to auditory stimulation. Exposure to loud high-frequency sounds can trigger seizure activity in these animals. This sensitivity develops from postnatal day 12 and peaks around day 21 and slowly diminishes as the animals mature. The unusual response to auditory stimulation in this strain of mouse is believed to be due to a combination of early myelination (causing an unusually low excitatory threshold) and delayed development of inhibitory mechanisms.
Mice were injected intraperitoneally with the compound specified in Table I below or with vehicle control, 30 minutes prior to being placed in a bell jar and turning on the auditory stimulus (12 KHz sine wave at 110–120 db). Administered doses are specified in Table I as milligram of compound per kilogram bodyweight of mouse. The auditory stimulus was left on for 60 seconds and mice reactions were timed and recorded. Percentage inhibition was determined with reference to vehicle controls. All compounds were tested in HCl salt form.

mouse = conditions: recognized model for evaluation of neuroprotective drugs; cited from earlier work
in vivo models of stroke = conditions: variety of in vivo models of stroke; cited from earlier work
[1] = in vivo; cited from earlier work
[2] = dose 20 mg/kg intraperitoneally 30 minutes prior to auditory stimulus (12 KHz, 110–120 db)

Cl.N/C(=N\C(=O)c1cccs1)NCCc1ccccc1
melting point: 198 to 200 °C

CCOc1ccc(NC(=N)NCCCCc2ccccc2)cc1 [N-(4-ethoxyphenyl)-N′-(4-phenylbutyl)guanidine]
Audiogenic Response % Inhib. (DBA/2 mice; [2]): 60%

CCCCOc1ccc(C(=O)/N=C(\N)NCCc2c[nH]c3ccccc23)cc1.Cl
melting point: 158 to 162 °C

C[C@]12N[C@H](Cc3ccccc31)c1ccccc12 [MK-801]
activity in mouse audiogenic tests (mouse): good activity
results in in vivo models of stroke (in vivo models of stroke): good results
toxicity [1]: has shown toxicity

Cc1ccc(C(=O)/N=C(\N)Nc2ccc(C(C)C)cc2)cc1.Cl [N-(4-methylbenzoyl)-N′-(4-isopropylphenyl)guanidine, hydrochloride]
Audiogenic Response % Inhib. (DBA/2 mice; [2]): 30%

COc1ccc(C(=O)/N=C(\N)NCCCCc2ccccc2)cc1.Cl [N-(4-methoxybenzoyl)-N′-(4-phenylbutyl)guanidine, hydrochloride]
Audiogenic Response % Inhib. (DBA/2 mice; [2]): 42%
melting point: 172 to 174 °C

Cc1ccc(C(=O)/N=C(\N)NCCCCc2ccccc2)cc1.Cl [N-(4-methylbenzoyl)-N′-(4-phenylbutyl)guanidine, hydrochloride]
Audiogenic Response % Inhib. (DBA/2 mice; dose 10 mg/kg intraperitoneally 30 minutes prior to auditory stimulus (12 KHz, 110–120 db)): 16%
Audiogenic Response % Inhib. (DBA/2 mice; [2]): 75%

COc1ccc(NC(=N)Nc2ccc(C(C)C)cc2)cc1 [N-(4-methoxyphenyl)-N′-(4-isopropylphenyl)guanidine]
Audiogenic Response % Inhib. (DBA/2 mice; [2]): 56%

CCCCOc1ccc(NC(=N)NCCCCc2ccccc2)cc1 [N-(4-butoxyphenyl)-N′-(4-phenylbutyl)guanidine]
Audiogenic Response % Inhib. (DBA/2 mice; [2]): 97%
